Reference: patent US8802597B2, “Herbicidal pyrimidines” (E I du Pont de Nemours and Company, priority 2003, dated 2014)

What was measured:
Assay type in all cases: in vivo
wild oat (Avena fatua) = test: Test B postemergence; conditions: scale 0 to 100 (0 no effect, 100 complete control)
Outline: (§1)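 Following sowing, compounds in a surfactant-bearing non-phytotoxic solvent were applied preemergence; emerged plants 2 to 18 cm high got postemergence treatment concurrently. Evaluation: 13 to 15 days later, greenhouse, 0–100 visual scale.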

[1] = system: blackgrass (Alopecurus myosuroides); test: Test B postemergence; conditions: scale 0 to 100 (0 no effect, 100 complete control)
Outline: as §1

rice (Oryza sativa) = test: Test B flooded paddy test; conditions: Flood, scale 0 to 100
Outline: (§2)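 Rice, umbrella sedge, duck salad and barnyardgrass grown to 2-leaf stage under flooded paddy conditions and treated with formulated test chemicals. Kept in greenhouse 13–15 days, then visually rated against untreated controls on a 0–100 scale (0 no effect, 100 complete control).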

[2] = system: umbrella sedge (Cyperus difformis); test: Test B flooded paddy test; conditions: Flood, scale 0 to 100
Outline: as §2

[3] = system: duck salad (Heteranthera limosa); test: Test B flooded paddy test; conditions: Flood, scale 0 to 100
Outline: as §2

[4] = system: barnyardgrass (Echinochloa crus-galli); test: Test B flooded paddy test; conditions: Flood, scale 0 to 100
Outline: as §2

[5] = system: lambsquarters (Chenopodium album); test: Test B pre/postemergence; conditions: for Lambsquarters plant response rating: Postemergence; for Plant response rating, Lambsquarters: Preemergence
Outline: as §1

[6] = system: morningglory (Ipomoea coccinea); test: Test B pre/postemergence; conditions: for Morningglory plant response rating: Postemergence; for Plant response rating, Morningglory: Preemergence
Outline: as §1

[7] = system: wheat (Triticum aestivum); test: Test B pre/postemergence; conditions: for Wheat plant response rating: Postemergence; for Plant response rating, Wheat: Preemergence
Outline: as §1

[8] = system: crabgrass (Digitaria sanguinalis); test: Test B pre/postemergence; conditions: for Crabgrass plant response rating: Postemergence; for Plant response rating, Crabgrass: Preemergence
Outline: as §1

[9] = system: velvetleaf (Abutilon theophrasti); test: Test B pre/postemergence; conditions: for Velvetleaf plant response rating: Postemergence; for Plant response rating, Velvetleaf: Preemergence
Outline: as §1

[10] = system: cocklebur (Xanthium strumarium); test: Test B pre/postemergence; conditions: for Cocklebur plant response rating: Postemergence; for Plant response rating, Cocklebur: Preemergence
Outline: as §1

[11] = system: pigweed (Amaranthus retroflexus); test: Test B pre/postemergence; conditions: for Pigweed plant response rating: Postemergence; for Plant response rating, Pigweed: Preemergence
Outline: as §1

[12] = system: Surinam grass (Brachiaria decumbens); test: Test B pre/postemergence; conditions: for Surinam Grass plant response rating: Postemergence; for Plant response rating, Surinam Grass: Preemergence
Outline: as §1

corn (Zea mays) = test: Test B pre/postemergence; conditions: for Corn plant response rating: Postemergence; for Plant response rating, Corn: Preemergence
Outline: as §1

[13] = system: barnyardgrass (Echinochloa crus-galli); test: Test B pre/postemergence; conditions: for Barnyardgrass plant response rating: Postemergence; for Plant response rating, Barnyardgrass: Preemergence
Outline: as §1

[14] = system: giant foxtail (Setaria faberii); test: Test B pre/postemergence; conditions: for Foxtail, Giant plant response rating: Postemergence; for Plant response rating, Foxtail, Giant: Preemergence
Outline: as §1

[15] = 62 g ai/ha, scale 0 to 100 (0 no effect, 100 complete control)
[16] = 125 g ai/ha, scale 0 to 100 (0 no effect, 100 complete control)
[17] = 62 g ai/ha, scale 0 to 100, 0 no effect, 100 complete control

COC(=O)c1nc(-c2ccc(I)cc2)nc(N)c1Br [Compound 128]
Oat, Wild plant response rating (wild oat (Avena fatua); 62 g ai/ha): 0
Oat, Wild plant response rating (wild oat (Avena fatua); 125 g ai/ha): 40
Blackgrass plant response rating ([1]; 62 g ai/ha): 40
Blackgrass plant response rating ([1]; 125 g ai/ha): 50
Plant response rating, Rice (rice (Oryza sativa); 125 g ai/ha): 0
Plant response rating, Rice (rice (Oryza sativa); 500 g ai/ha): 0
Plant response rating, Sedge, Umbrella ([2]; 125 g ai/ha): 90
Plant response rating, Sedge, Umbrella ([2]; 500 g ai/ha): 100
Plant response rating, Ducksalad ([3]; 125 g ai/ha): 90
Plant response rating, Ducksalad ([3]; 500 g ai/ha): 100
Plant response rating, Barnyardgrass ([4]; 125 g ai/ha): 0
Plant response rating, Barnyardgrass ([4]; 500 g ai/ha): 30
Lambsquarters plant response rating [5, 15]: 90
Lambsquarters plant response rating [5, 16]: 90
Plant response rating, Lambsquarters [5, 17]: 10
Plant response rating, Lambsquarters [5, 16]: 50
Morningglory plant response rating [6, 15]: 40
Morningglory plant response rating [6, 16]: 90
Plant response rating, Morningglory [6, 17]: 0
Plant response rating, Morningglory [6, 16]: 0
Wheat plant response rating [7, 15]: 0
Wheat plant response rating [7, 16]: 20
Plant response rating, Wheat [7, 17]: 0
Plant response rating, Wheat [7, 16]: 0
Crabgrass plant response rating [8, 15]: 20
Crabgrass plant response rating [8, 16]: 40
Plant response rating, Crabgrass [8, 17]: 0
Plant response rating, Crabgrass [8, 16]: 0
Velvetleaf plant response rating [9, 15]: 50
Velvetleaf plant response rating [9, 16]: 80
Plant response rating, Velvetleaf [9, 17]: 0
Plant response rating, Velvetleaf [9, 16]: 40
Cocklebur plant response rating [10, 15]: 70
Cocklebur plant response rating [10, 16]: 90
Plant response rating, Cocklebur [10, 17]: 0
Plant response rating, Cocklebur [10, 16]: 10
Pigweed plant response rating [11, 15]: 90
Pigweed plant response rating [11, 16]: 90
Plant response rating, Pigweed [11, 17]: 10
Plant response rating, Pigweed [11, 16]: 50
Surinam Grass plant response rating [12, 15]: 30
Surinam Grass plant response rating [12, 16]: 40
Plant response rating, Surinam Grass [12, 17]: 0
Plant response rating, Surinam Grass [12, 16]: 0
Corn plant response rating (corn (Zea mays); [15]): 10
Corn plant response rating (corn (Zea mays); [16]): 70
Plant response rating, Corn (corn (Zea mays); [17]): 0
Plant response rating, Corn (corn (Zea mays); [16]): 0
Barnyardgrass plant response rating [13, 15]: 40
Barnyardgrass plant response rating [13, 16]: 60
Plant response rating, Barnyardgrass [13, 17]: 0
Plant response rating, Barnyardgrass [13, 16]: 10
Foxtail, Giant plant response rating [14, 15]: 30
Foxtail, Giant plant response rating [14, 16]: 50
Plant response rating, Foxtail, Giant [14, 17]: 0
Plant response rating, Foxtail, Giant [14, 16]: 0

Nc1nc(-c2ccc(Cl)cc2)nc(C(=O)[O-])c1Cl.[Na+] [Compound 117]
Oat, Wild plant response rating (wild oat (Avena fatua); 62 g ai/ha): 30
Oat, Wild plant response rating (wild oat (Avena fatua); 125 g ai/ha): 50
Blackgrass plant response rating ([1]; 62 g ai/ha): 60
Blackgrass plant response rating ([1]; 125 g ai/ha): 70
Plant response rating, Rice (rice (Oryza sativa); 125 g ai/ha): 20
Plant response rating, Rice (rice (Oryza sativa); 500 g ai/ha): 50
Plant response rating, Sedge, Umbrella ([2]; 125 g ai/ha): 80
Plant response rating, Sedge, Umbrella ([2]; 500 g ai/ha): 90
Plant response rating, Ducksalad ([3]; 125 g ai/ha): 100
Plant response rating, Ducksalad ([3]; 500 g ai/ha): 100
Plant response rating, Barnyardgrass ([4]; 125 g ai/ha): 20
Plant response rating, Barnyardgrass ([4]; 500 g ai/ha): 70
Lambsquarters plant response rating [5, 15]: 90
Lambsquarters plant response rating [5, 16]: 100
Plant response rating, Lambsquarters [5, 17]: 90
Plant response rating, Lambsquarters [5, 16]: 100
Morningglory plant response rating [6, 15]: 80
Morningglory plant response rating [6, 16]: 100
Plant response rating, Morningglory [6, 17]: 10
Plant response rating, Morningglory [6, 16]: 20
Wheat plant response rating [7, 15]: 50
Wheat plant response rating [7, 16]: 70
Plant response rating, Wheat [7, 17]: 50
Plant response rating, Wheat [7, 16]: 80
Crabgrass plant response rating [8, 15]: 60
Crabgrass plant response rating [8, 16]: 80
Plant response rating, Crabgrass [8, 17]: 90
Plant response rating, Crabgrass [8, 16]: 90
Velvetleaf plant response rating [9, 15]: 90
Velvetleaf plant response rating [9, 16]: 100
Plant response rating, Velvetleaf [9, 17]: 70
Plant response rating, Velvetleaf [9, 16]: 90
Cocklebur plant response rating [10, 15]: 100
Cocklebur plant response rating [10, 16]: 100
Plant response rating, Cocklebur [10, 17]: 50
Plant response rating, Cocklebur [10, 16]: 90
Pigweed plant response rating [11, 15]: 100
Pigweed plant response rating [11, 16]: 100
Plant response rating, Pigweed [11, 17]: 100
Plant response rating, Pigweed [11, 16]: 100
Surinam Grass plant response rating [12, 15]: 70
Surinam Grass plant response rating [12, 16]: 70
Plant response rating, Surinam Grass [12, 17]: 80
Plant response rating, Surinam Grass [12, 16]: 100
Corn plant response rating (corn (Zea mays); [15]): 90
Corn plant response rating (corn (Zea mays); [16]): 90
Plant response rating, Corn (corn (Zea mays); [17]): 0
Plant response rating, Corn (corn (Zea mays); [16]): 10
Barnyardgrass plant response rating [13, 15]: 90
Barnyardgrass plant response rating [13, 16]: 90
Plant response rating, Barnyardgrass [13, 17]: 10
Plant response rating, Barnyardgrass [13, 16]: 30
Foxtail, Giant plant response rating [14, 15]: 80
Foxtail, Giant plant response rating [14, 16]: 80
Plant response rating, Foxtail, Giant [14, 17]: 20
Plant response rating, Foxtail, Giant [14, 16]: 90

Nc1nc(C2CC2)nc(C(=O)O)c1Cl [Compound 135, 6-amino-5-chloro-2-cyclopropyl-4-pyrimidinecarboxylic acid]
Oat, Wild plant response rating (wild oat (Avena fatua); 62 g ai/ha): 60
Oat, Wild plant response rating (wild oat (Avena fatua); 125 g ai/ha): 60
Blackgrass plant response rating ([1]; 62 g ai/ha): 60
Blackgrass plant response rating ([1]; 125 g ai/ha): 70
Plant response rating, Rice (rice (Oryza sativa); 125 g ai/ha): 20
Plant response rating, Rice (rice (Oryza sativa); 500 g ai/ha): 60
Plant response rating, Sedge, Umbrella ([2]; 125 g ai/ha): 70
Plant response rating, Sedge, Umbrella ([2]; 500 g ai/ha): 80
Plant response rating, Ducksalad ([3]; 125 g ai/ha): 60
Plant response rating, Ducksalad ([3]; 500 g ai/ha): 90
Plant response rating, Barnyardgrass ([4]; 125 g ai/ha): 30
Plant response rating, Barnyardgrass ([4]; 500 g ai/ha): 80
Lambsquarters plant response rating [5, 15]: 100
Lambsquarters plant response rating [5, 16]: 100
Plant response rating, Lambsquarters [5, 17]: 100
Plant response rating, Lambsquarters [5, 16]: 100
Morningglory plant response rating [6, 15]: 100
Morningglory plant response rating [6, 16]: 100
Plant response rating, Morningglory [6, 17]: 100
Plant response rating, Morningglory [6, 16]: 100
Wheat plant response rating [7, 15]: 40
Wheat plant response rating [7, 16]: 60
Plant response rating, Wheat [7, 17]: 70
Plant response rating, Wheat [7, 16]: 90
Crabgrass plant response rating [8, 15]: 60
Crabgrass plant response rating [8, 16]: 70
Plant response rating, Crabgrass [8, 17]: 80
Plant response rating, Crabgrass [8, 16]: 90
Velvetleaf plant response rating [9, 15]: 100
Velvetleaf plant response rating [9, 16]: 100
Plant response rating, Velvetleaf [9, 17]: 90
Plant response rating, Velvetleaf [9, 16]: 100
Cocklebur plant response rating [10, 15]: 100
Cocklebur plant response rating [10, 16]: 100
Plant response rating, Cocklebur [10, 17]: 100
Plant response rating, Cocklebur [10, 16]: 100
Pigweed plant response rating [11, 15]: 100
Pigweed plant response rating [11, 16]: 100
Plant response rating, Pigweed [11, 17]: 100
Plant response rating, Pigweed [11, 16]: 100
Surinam Grass plant response rating [12, 15]: 80
Surinam Grass plant response rating [12, 16]: 80
Plant response rating, Surinam Grass [12, 17]: 80
Plant response rating, Surinam Grass [12, 16]: 90
Corn plant response rating (corn (Zea mays); [15]): 50
Corn plant response rating (corn (Zea mays); [16]): 80
Plant response rating, Corn (corn (Zea mays); [17]): 50
Plant response rating, Corn (corn (Zea mays); [16]): 80
Barnyardgrass plant response rating [13, 15]: 70
Barnyardgrass plant response rating [13, 16]: 90
Plant response rating, Barnyardgrass [13, 17]: 70
Plant response rating, Barnyardgrass [13, 16]: 90
Foxtail, Giant plant response rating [14, 15]: 80
Foxtail, Giant plant response rating [14, 16]: 80
Plant response rating, Foxtail, Giant [14, 17]: 60
Plant response rating, Foxtail, Giant [14, 16]: 90
